Laboratory results taken from patent publication US6169065A, “Method for the activity of an enzyme” (Lever Brothers Company division of Conopco Company, priority 1997, dated 2001).

How the values were obtained:
Assay type in all cases: biochemical
[1] = target: T1, Arthromyces ramosus peroxidase (Arthromyces ramosus, UniProt P28313); assay: Oxidation (bleaching) of Reactive Black 5 by peroxidase plus enhancer; conditions: for % bleaching / ΔAbs: 590 nm, 25° C., pH 9, 30 min
T1 construct: purchased Sigma P4794
T1 sequence (P28313 21-364): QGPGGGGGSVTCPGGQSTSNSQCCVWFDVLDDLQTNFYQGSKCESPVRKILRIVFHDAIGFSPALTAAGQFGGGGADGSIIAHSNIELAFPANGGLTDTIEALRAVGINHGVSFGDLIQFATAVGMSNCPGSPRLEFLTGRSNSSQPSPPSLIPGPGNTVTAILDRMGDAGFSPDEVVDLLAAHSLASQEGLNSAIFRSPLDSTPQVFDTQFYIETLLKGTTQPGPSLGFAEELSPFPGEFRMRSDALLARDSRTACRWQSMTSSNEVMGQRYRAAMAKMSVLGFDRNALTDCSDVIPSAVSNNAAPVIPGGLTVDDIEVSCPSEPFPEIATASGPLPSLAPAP
Method: The oxidation of Reactive Black 5 (RB5) is monitored at 590 nm in a spectrophotometer. […] The reaction was carried out for 30 minutes at room temperature. The difference in absorbance between t=0 and t=30 min (Δ Abs in Table) is a measure of the enhancing activity of the system tested.
ARP [6 u/ml], H2 O2 [250 μM], RB5 [60 μM], Enhancers [100 μM]
(§1) Examples 3-7 were repeated using 2-azaPTP, 4-azaPTP and PTP.

[2] = target: T1, Arthromyces ramosus peroxidase; assay: Oxidation (bleaching) of Direct Green 26 by peroxidase plus enhancer; conditions: 25° C., pH 9, 30 min
Method: The oxidation of Direct Green 26 (DG26) is monitored at 610 nm in a spectrophotometer. […] The reaction was carried out for 30 minutes at room temperature. The difference in absorbance between t=0 and t=30 min (Δ Abs in Table) is a measure of the enhancing activity of the system tested.
as §1

[3] = target: T1, Arthromyces ramosus peroxidase; assay: Oxidation (bleaching) of Direct Red 80 by peroxidase plus enhancer; conditions: pH 9, 30 min
Method: The reagents are added, using a pipette, in the following order, to a 1-cm cuvette: aqueous carbonate buffer pH 9 (20 mM), DR80 (60 μM), enhancer (various concentrations) and peroxidase enzyme (Arthromyces ramosus peroxidase from Sigma, P4794); 60 units/ml). The reaction was carried out for 30 minutes at room temperature. The difference in absorbance between t=0 and t=30 min (Δ Abs in Table) is a measure of the enhancing activity of the system tested.
as §1

[4] = target: T2, laccase (Polyporus pinsitus) (Trametes villosa, UniProt Q99044); assay: Oxidation of Reactive Black 5 by laccase plus enhancer; conditions: for decrease in absorbance after 3 h: 25 C, laccase 30 u/ml, enhancer 67 μM
T2 sequence (Q99044 22-520): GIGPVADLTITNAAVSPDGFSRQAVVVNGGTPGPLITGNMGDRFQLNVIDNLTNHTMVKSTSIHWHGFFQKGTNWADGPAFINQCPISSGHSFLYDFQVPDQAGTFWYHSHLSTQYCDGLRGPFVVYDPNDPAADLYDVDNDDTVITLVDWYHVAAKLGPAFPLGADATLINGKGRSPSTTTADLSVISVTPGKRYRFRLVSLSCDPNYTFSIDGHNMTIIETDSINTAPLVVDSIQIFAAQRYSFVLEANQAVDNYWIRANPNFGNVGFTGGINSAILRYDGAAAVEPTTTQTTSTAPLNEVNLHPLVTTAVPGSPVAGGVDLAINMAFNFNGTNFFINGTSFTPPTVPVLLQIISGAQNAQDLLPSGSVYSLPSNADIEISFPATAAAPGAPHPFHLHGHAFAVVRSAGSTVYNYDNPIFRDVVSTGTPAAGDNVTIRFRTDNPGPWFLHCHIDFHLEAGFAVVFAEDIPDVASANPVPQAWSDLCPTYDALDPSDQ
Method: The laccase activity is measured on a spectrophotometer with 2 mM ABTS in 20 mM sodium phosphate buffer pH 6.0 at 25° C. The oxidation of Reactive Black 5 (RB5) is monitored at 575 nm. The reagents are added, using a pipette, in the following order, to a 1-cm cuvette: aqueous tris buffer pH 9 (20 mM) or sodium phosphate buffer pH 6.0 (20 mM), RB5 (67 μM), enhancer (67 μM), and laccase (Polyporus pinsitus, 30 units/ml). The reaction was carried for 3 hours at room temperature. The difference in absorbance between t=0 and t=3 hours is a measure of the enhancing activity of the system tested. RB5 [575 nm]: 25 C, pH 6.0 and 9.0, 3 h. Laccase [30 u/ml], RB5 [67 μM], Enhancers [67 μM]. The values listed are the decrease in absorbance at […] after 3 h.

[5] = target: T2, laccase (Polyporus pinsitus); assay: Oxidation of Direct Green 26 by laccase plus enhancer; conditions: 25° C., laccase 30 u/ml, enhancer 67 μM
Method: The oxidation of Direct Green 26 (DG26) is monitored at 605 nm in a spectrophotometer. The reagents are added, using a pipette, in the following order, to a 1-cm cuvette: aqueous tris buffer pH 9 (20 mM) or sodium phosphate buffer pH 6.0 (20 mM), DG26 (67 μM), enhancer (67 μM), and laccase (Polyporus pinsitus, 30 units/ml). The reaction was carried for 3 hours at room temperature. The difference in absorbance between […] and t=3 h is a measure of the enhancing activity of the system tested. DG26 [605 nm]: 25° C., pH 6.0 and 9.0, 3 h. Laccase [30 u/ml], DG26 [67 μM], Enhancers [67 μM]. The values listed are the decrease in absorbance at 605 nm after 3 h.

[6] = Example 8: RB5 60 μM, ARP 10 u/ml, H2O2 100 μM, enhancer 200 μM
[7] = Example 8: DG26, 610 nm, ARP 10 u/ml, H2O2 100 μM, dye 60 μM, enhancer 200 μM
[8] = Example 8: DR80, 530 nm, 25° C., ARP 10 u/ml, H2O2 100 μM, dye 60 μM, enhancer 100 μM
[9] = Example 8: DR80, 530 nm, 25° C., ARP 10 u/ml, H2O2 100 μM, dye 60 μM, enhancer 200 μM
[10] = RB5 60 μM, ARP 6 u/ml, H2O2 250 μM, enhancer 100 μM
[11] = DG26 60 μM, 610 nm, ARP 60 u/ml, H2O2 250 μM, enhancer 100 μM
[12] = DR80 60 μM, 500 nm, 25C, ARP 60 u/ml, H2O2 250 μM, enhancer 100 μM
[13] = DR80 60 μM, 500 nm, 25° C., ARP 60 u/ml, H2O2 250 μM, enhancer 10 μM
[14] = DR80 60 μM, 500 nm, 25° C., ARP 60 u/ml, H2O2 250 μM, enhancer 25 μM
[15] = DR80 60 μM, 500 nm, 25° C., ARP 60 u/ml, H2O2 250 μM, enhancer 50 μM

| % bleaching [1, 6] [%] | % bleaching [2, 7] [%] | % bleaching [3, 8] [%] | % bleaching [3, 9] [%] | % bleaching [1, 10] [%] | ΔAbs [1, 10] | % bleaching [2, 11] [%] | ΔAbs [2, 11] | % bleaching [3, 12] [%] | ΔAbs [3, 12] | % bleaching [3, 13] [%] | ΔAbs [3, 13] | % bleaching [3, 14] [%] | ΔAbs [3, 14] | % bleaching [3, 15] [%] | ΔAbs [3, 15] | decrease in absorbance after 3 h ([4]; pH 6.0, RB5 67 μM) | decrease in absorbance after 3 h ([4]; pH 9.0, RB5 67 μM) | decrease in absorbance at 605 nm after 3 h ([5]; pH 6.0, DG26 67 μM) | decrease in absorbance at 605 nm after 3 h ([5]; pH 9.0, DG26 67 μM) | SMILES | other results |
| --- | --- | --- | --- | --- | --- | --- | --- | --- | --- | --- | --- | --- | --- | --- | --- | --- | --- | --- | --- | --- | --- |
| 63 | 31 | 12 | 20 |  |  |  |  |  |  |  |  |  |  |  |  |  |  |  |  | O=C(O)CCN1c2ccccc2Sc2cnccc21 [Enhancer 2-aza-PTP, 10-(pyrido[3,4-b][1,4]benzothiazyl)propionic acid] |  |
| 64 | 43 | 18 | 10 | 76 | 1.01 | 78 | 1.09 | 33 | 0.50 | 60 | 0.98 | 83 | 1.26 | 60 | 0.91 | 0.48 | 0.26 | 0.34 | 0.30 | O=C(O)CCN1c2ccccc2Sc2cccnc21 [Enhancer 4-aza-PTP, 10-(pyrido[3,2-b][1,4]benzothiazyl)propionic acid] | enhancing capabilities with peroxidase ([1]; summary of Examples 3-5, especially at lower concentrations (Example 5)): excellent enhancing capabilities; enhancing capabilities with laccase ([4]; summary of Examples 6-7): excellent enhancing capabilities |
| 35 | 29 | 6 | 2 | 80 | 1.03 | 65 | 0.92 | 48 | 0.78 | 20 | 0.33 | 40 | 0.66 | 50 | 0.82 | 0.32 | 0.24 | 0.14 | 0.37 | O=C(O)CCN1c2ccccc2Sc2ccccc21 [PTP, reference compound] |  |
